The values below come from patent US20090304692A1, “TRIAZINE COMPOUNDS AS PI3 KINASE AND MTOR INHIBITORS” (Wyeth, priority 2008, published 2009).

In assay [1] the test system is human prostate PC3-mm2 tumor cell line. Put plainly: In vitro cell culture growth assay (MTS), PC3-mm2. The format is cell-based. The settings on record: Homo sapiens, PC3MM2, 72 h, MTS cell growth assay, three days after drug treatment, PC3-mm2 cells; read-out: IC50 PC3-mm2.
Another assay deals with PI3K-α (Homo sapiens, UniProt P42336). Put plainly: PI3K-alpha fluorescence polarization assay. Particulars: read-out: IC50 PI3Kα.
Sequence of PI3K-α (P42336 whole entry, species assumed): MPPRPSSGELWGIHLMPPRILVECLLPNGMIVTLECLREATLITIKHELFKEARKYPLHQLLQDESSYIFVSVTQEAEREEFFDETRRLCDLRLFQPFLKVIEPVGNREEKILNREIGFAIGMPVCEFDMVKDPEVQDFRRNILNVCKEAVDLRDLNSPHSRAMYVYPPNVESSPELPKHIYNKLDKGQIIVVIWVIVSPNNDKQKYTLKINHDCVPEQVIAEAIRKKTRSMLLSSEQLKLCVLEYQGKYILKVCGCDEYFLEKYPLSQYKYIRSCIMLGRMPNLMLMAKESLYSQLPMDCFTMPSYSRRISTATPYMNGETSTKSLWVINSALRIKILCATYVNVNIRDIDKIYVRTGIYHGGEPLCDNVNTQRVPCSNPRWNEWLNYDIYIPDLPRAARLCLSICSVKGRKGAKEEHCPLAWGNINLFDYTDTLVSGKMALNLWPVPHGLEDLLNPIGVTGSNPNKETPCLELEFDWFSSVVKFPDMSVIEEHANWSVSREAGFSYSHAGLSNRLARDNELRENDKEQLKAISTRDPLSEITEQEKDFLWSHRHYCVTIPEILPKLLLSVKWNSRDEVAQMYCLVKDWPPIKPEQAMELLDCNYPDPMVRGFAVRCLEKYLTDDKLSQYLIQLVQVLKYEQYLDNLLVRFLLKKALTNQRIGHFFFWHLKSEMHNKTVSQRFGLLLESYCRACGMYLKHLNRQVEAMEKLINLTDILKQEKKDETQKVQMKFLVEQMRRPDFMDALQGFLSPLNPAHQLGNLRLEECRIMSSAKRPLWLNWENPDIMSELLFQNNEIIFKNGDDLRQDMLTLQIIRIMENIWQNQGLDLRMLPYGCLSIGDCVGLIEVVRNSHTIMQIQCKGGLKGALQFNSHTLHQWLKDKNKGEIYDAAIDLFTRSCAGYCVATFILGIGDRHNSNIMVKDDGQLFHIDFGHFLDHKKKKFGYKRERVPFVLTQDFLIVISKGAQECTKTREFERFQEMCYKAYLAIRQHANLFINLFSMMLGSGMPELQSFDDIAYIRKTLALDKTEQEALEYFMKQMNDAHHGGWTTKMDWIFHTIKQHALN
Sequence of PI3K-α (P27986 whole entry partner, species assumed): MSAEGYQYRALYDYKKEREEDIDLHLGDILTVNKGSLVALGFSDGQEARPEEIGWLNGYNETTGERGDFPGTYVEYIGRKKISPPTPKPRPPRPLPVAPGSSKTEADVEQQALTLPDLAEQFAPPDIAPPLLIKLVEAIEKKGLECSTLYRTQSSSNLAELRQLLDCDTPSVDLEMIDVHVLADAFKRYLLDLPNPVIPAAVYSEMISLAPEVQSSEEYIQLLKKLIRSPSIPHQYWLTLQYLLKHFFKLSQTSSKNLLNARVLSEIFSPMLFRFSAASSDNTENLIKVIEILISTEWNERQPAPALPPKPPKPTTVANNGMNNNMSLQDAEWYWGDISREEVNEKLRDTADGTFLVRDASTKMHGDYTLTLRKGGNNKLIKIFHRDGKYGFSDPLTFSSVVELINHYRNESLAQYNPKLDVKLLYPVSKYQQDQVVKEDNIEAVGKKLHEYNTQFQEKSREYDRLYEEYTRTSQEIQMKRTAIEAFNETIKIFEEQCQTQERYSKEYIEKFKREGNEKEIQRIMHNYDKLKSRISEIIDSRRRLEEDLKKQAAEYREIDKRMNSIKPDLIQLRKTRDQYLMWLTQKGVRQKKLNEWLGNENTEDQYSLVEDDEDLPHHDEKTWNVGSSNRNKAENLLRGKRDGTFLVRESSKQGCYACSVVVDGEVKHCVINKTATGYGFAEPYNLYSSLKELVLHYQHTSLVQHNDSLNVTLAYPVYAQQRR
The target in another assay is PI3K-γ (Homo sapiens, UniProt P48736). Put plainly: PI3K-gamma fluorescence polarization assay. Particulars: read-out: IC50 PI3Kγ.
Sequence of PI3K-γ (P48736 whole entry, species assumed): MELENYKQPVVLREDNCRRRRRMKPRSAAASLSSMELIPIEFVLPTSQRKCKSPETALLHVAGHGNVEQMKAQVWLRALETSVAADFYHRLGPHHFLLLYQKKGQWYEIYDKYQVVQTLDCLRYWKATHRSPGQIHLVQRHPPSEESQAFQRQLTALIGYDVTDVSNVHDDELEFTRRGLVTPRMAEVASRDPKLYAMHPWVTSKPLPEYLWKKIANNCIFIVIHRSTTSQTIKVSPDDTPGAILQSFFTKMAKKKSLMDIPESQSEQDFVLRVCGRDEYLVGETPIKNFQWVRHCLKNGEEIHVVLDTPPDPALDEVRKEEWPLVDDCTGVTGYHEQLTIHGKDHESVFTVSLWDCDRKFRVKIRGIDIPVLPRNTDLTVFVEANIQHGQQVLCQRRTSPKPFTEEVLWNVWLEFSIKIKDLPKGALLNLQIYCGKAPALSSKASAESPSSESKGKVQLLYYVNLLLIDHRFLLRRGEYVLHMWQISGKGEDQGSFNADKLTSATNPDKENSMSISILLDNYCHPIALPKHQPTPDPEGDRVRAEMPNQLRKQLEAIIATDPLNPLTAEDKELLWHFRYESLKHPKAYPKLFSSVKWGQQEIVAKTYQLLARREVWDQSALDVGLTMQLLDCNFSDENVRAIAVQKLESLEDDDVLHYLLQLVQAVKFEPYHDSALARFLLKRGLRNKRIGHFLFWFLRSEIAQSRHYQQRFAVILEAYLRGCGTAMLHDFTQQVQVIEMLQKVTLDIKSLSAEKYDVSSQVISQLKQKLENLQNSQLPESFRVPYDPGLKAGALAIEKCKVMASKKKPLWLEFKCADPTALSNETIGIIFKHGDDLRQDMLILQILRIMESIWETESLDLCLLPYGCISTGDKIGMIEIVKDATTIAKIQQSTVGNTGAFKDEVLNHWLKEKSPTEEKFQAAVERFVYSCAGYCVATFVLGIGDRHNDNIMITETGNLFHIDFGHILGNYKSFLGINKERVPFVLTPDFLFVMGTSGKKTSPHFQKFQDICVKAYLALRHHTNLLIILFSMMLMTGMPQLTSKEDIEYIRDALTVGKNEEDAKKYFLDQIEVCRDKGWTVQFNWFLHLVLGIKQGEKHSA
Assay [2] relates to human breast MDA-MB-361 tumor cell line. The experiment in a line: In vitro cell culture growth assay (MTS), MDA-MB-361. The format is cell-based. Particulars: Homo sapiens, MTS cell growth assay, three days after drug treatment, MDA-MB-361 cells, read-out: IC50 MDA-MB-361.
In a further assay the target is Human mTOR (FLAG-TOR) (Homo sapiens, UniProt P42345). The experiment in a line: mTOR kinase assay (DELFIA format, purified enzyme). Particulars: read-out: IC50 mTOR. The format is biochemical.
Sequence of Human mTOR (FLAG-TOR) (P42345 1360-2549 limits assumed): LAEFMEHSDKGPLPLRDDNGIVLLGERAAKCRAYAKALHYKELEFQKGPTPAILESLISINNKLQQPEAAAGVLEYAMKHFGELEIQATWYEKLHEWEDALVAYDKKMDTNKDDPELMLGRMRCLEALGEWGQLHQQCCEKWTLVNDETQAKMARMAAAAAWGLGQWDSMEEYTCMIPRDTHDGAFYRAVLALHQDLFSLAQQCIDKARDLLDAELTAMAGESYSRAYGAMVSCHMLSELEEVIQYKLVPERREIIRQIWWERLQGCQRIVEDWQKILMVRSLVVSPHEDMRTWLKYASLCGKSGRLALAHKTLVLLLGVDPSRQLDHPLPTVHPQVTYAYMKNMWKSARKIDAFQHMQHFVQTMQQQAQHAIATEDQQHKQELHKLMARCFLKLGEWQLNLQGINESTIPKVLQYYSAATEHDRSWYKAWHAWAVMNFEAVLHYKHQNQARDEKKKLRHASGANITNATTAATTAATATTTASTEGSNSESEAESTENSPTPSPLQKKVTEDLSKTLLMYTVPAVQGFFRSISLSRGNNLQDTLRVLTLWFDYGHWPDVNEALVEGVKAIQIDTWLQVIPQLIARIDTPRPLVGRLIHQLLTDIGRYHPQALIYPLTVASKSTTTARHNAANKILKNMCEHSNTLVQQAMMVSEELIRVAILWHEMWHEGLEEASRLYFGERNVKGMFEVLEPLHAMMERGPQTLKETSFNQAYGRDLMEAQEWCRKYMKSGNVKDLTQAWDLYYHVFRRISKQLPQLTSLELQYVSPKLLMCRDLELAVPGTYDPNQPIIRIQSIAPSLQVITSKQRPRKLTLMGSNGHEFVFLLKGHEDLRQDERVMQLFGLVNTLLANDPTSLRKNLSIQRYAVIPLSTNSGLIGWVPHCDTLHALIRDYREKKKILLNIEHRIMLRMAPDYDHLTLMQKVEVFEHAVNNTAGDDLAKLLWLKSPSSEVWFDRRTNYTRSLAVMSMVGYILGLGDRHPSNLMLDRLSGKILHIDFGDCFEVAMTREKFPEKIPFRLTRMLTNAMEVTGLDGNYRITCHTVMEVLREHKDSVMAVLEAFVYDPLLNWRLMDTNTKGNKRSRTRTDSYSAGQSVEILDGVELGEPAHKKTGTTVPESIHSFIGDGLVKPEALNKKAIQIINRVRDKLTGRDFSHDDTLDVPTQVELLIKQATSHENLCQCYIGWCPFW

Where two headings read alike, the source gives them in different places.

Consider `CN(C)C(=O)N1CCN(c2nc(-c3ccc(NC(=O)Nc4ccc(C(=O)O)cc4)cc3)nc(N3CCOCC3)n2)CC1` [Example 646, 4-{[(4-{4-[4-(dimethylcarbamoyl)piperazin-1-yl]-6-morpholin-4-yl-1,3,5-triazin-2-yl}phenyl)carbamoyl]amino}benzoic acid], for which the IC50 came out at 223 nM in assay [1]; 23 nM on PI3K-α; 85.5 nM on PI3K-γ; 32 nM in assay [2] (MDA-MB-361, 72 h); 6 nM on Human mTOR (FLAG-TOR).

In the case of `COCCNC(=O)c1ccc(NC(=O)Nc2ccc(-c3nc(N4CCOCC4)nc(N4CCN(C(=O)N(C)C)CC4)n3)cc2)cc1` [Example 647, 4-(4-{4-[({4-[(2-methoxyethyl)carbamoyl]phenyl}carbamoyl)amino]phenyl}-6-morpholin-4-yl-1,3,5-triazin-2-yl)-N,N-dimethylpiperazine-1-carboxamide], the 50% inhibitory concentration (IC50) in assay [1] worked out at 136 nM; on PI3K-α, 24.3 nM; on PI3K-γ it was 107 nM; in assay [2] (72 h), 46 nM; at Human mTOR (FLAG-TOR) it was 3 nM.

With `CN(C)CCN(C)C(=O)c1ccc(NC(=O)Nc2ccc(-c3nc(N4CCOCC4)nc(N4CCN(C(=O)N(C)C)CC4)n3)cc2)cc1` [Example 648, 4-[4-(4-{[(4-{[2-(dimethylamino)ethyl](methyl)carbamoyl}phenyl)carbamoyl]amino}phenyl)-6-morpholin-4-yl-1,3,5-triazin-2-yl]-N,N-dimethylpiperazine-1-carboxamide], the IC50 in assay [1] worked out at 34 nM; at PI3K-α, 2 nM; at PI3K-γ, 27 nM; in assay [2] (72 h), 12 nM; on Human mTOR (FLAG-TOR), 3 nM.

Turning to `CCN1CCN(C(=O)c2ccc(NC(=O)Nc3ccc(-c4nc(N5CCOCC5)nc(N5CCN(C(=O)N(C)C)CC5)n4)cc3)cc2)CC1` [Example 649, 4-(4-{4-[({4-[(4-ethylpiperazin-1-yl)carbonyl]phenyl}carbamoyl)amino]phenyl}-6-morpholin-4-yl-1,3,5-triazin-2-yl)-N,N-dimethylpiperazine-1-carboxamide], the IC50 stood at 37 nM in assay [1]; 6.4 nM on PI3K-α; 38 nM on PI3K-γ; 9 nM in assay [2] (MDA-MB-361, 72 h); 6 nM at Human mTOR (FLAG-TOR).

For `OCc1cccc(-c2nc(N3CCOCC3)nc(N3C4CCC3COC4)n2)c1` [Example 682, {3-[4-morpholin-4-yl-6-(3-oxa-8-azabicyclo[3.2.1]oct-8-yl)-1,3,5-triazin-2-yl]phenyl}methanol], the 50% inhibitory concentration (IC50) turned out to be 766 nM in assay [1]; 84.3 nM at PI3K-α; 1280 nM at PI3K-γ; 1040 nM in assay [2] (72 h); 88.5 nM on Human mTOR (FLAG-TOR).

`Oc1cccc(-c2nc(N3CCOCC3)nc(N3C4CCC3COC4)n2)c1` [Example 683, 3-[4-morpholin-4-yl-6-(3-oxa-8-azabicyclo[3.2.1]oct-8-yl)-1,3,5-triazin-2-yl]phenol]: the half-maximal inhibitory concentration (IC50) in assay [1] stood at 584 nM; on PI3K-α, 121 nM; on PI3K-γ, 1330 nM; in assay [2] (72 h) it was 673 nM; at Human mTOR (FLAG-TOR) it was 25 nM.

For the compound `Nc1nc2cc(-c3nc(N4CCOCC4)nc(N4C5CCC4COC5)n3)ccc2[nH]1` [Example 684, 5-[4-morpholin-4-yl-6-(3-oxa-8-azabicyclo[3.2.1]oct-8-yl)-1,3,5-triazin-2-yl]-1H-benzimidazol-2-amine], the 50% inhibitory concentration (IC50) in assay [1] came out at 1020 nM; on PI3K-α, 154 nM; on PI3K-γ, 2340 nM; in assay [2] (72 h), 806 nM; on Human mTOR (FLAG-TOR), 23.5 nM.

Regarding `O=C(Nc1ccccc1)Nc1ccc(-c2nc(N3CCOCC3)nc(N3C4CCC3CC(O)C4)n2)cc1` (centres unmarked) [Example 685, 1-{4-[4-(3-hydroxy-8-azabicyclo[3.2.1]oct-8-yl)-6-morpholin-4-yl-1,3,5-triazin-2-yl]phenyl}-3-phenylurea], the half-inhibitory concentration (IC50) in assay [1] was more than 10000 nM; at PI3K-α, 7 nM; at PI3K-γ it was 26.5 nM; in assay [2] (72 h), more than 10000 nM; at Human mTOR (FLAG-TOR), 0.825 nM.

Consider `CN1CCN(Nc2nc(-c3ccc(NC(=O)Nc4ccccc4)cc3)nc(N3CCOCC3)n2)CC1` [Example 686, 1-(4-{4-[(4-methylpiperazin-1-yl)amino]-6-morpholin-4-yl-1,3,5-triazin-2-yl}phenyl)-3-phenylurea], for which the half-inhibitory concentration (IC50) in assay [1] is 1100 nM; at PI3K-α it was 77 nM; on PI3K-γ it was 540 nM; in assay [2] (72 h) it was 569 nM; at Human mTOR (FLAG-TOR), 26 nM.

Regarding `CN1CCC(Oc2nc(-c3ccc(NC(=O)Nc4ccncc4)cc3)nc(N3CCOCC3)n2)CC1` [Example 687, 1-(4-{4-[(1-methylpiperidin-4-yl)oxy]-6-morpholin-4-yl-1,3,5-triazin-2-yl}phenyl)-3-pyridin-4-ylurea], the half-maximal inhibitory concentration (IC50) is 389 nM in assay [1]; 4 nM at PI3K-α; 39.5 nM at PI3K-γ; 355 nM in assay [2] (72 h); 4.85 nM at Human mTOR (FLAG-TOR).

On to `O=C(Nc1ccncc1)Nc1ccc(-c2nc(OC3CCNCC3)nc(N3CCOCC3)n2)cc1` [Example 688, 1-{4-[4-morpholin-4-yl-6-(piperidin-4-yloxy)-1,3,5-triazin-2-yl]phenyl}-3-pyridin-4-ylurea], for which the IC50 worked out at 1950 nM in assay [1]; 3 nM on PI3K-α; 35.5 nM at PI3K-γ; 1410 nM in assay [2] (72 h); 8 nM on Human mTOR (FLAG-TOR).

On to `CCOC(=O)N1CCC(Oc2nc(-c3ccc(NC(=O)Nc4ccncc4)cc3)nc(N3CCOCC3)n2)CC1` [Example 689, ethyl 4-[(4-morpholin-4-yl-6-{4-[(pyridin-4-ylcarbamoyl)amino]phenyl}-1,3,5-triazin-2-yl)oxy]piperidine-1-carboxylate], for which the IC50 in assay [1] is 85 nM; at PI3K-α, 217 nM; at PI3K-γ, 2480 nM; in assay [2] (72 h), 53 nM; at Human mTOR (FLAG-TOR) it was 39 nM.

In the case of `CCNC(=O)N1CCC(Oc2nc(-c3ccc(NC(=O)Nc4ccncc4)cc3)nc(N3CCOCC3)n2)CC1` [Example 690, N-ethyl-4-[(4-morpholin-4-yl-6-{4-[(pyridin-4-ylcarbamoyl)amino]phenyl}-1,3,5-triazin-2-yl)oxy]piperidine-1-carboxamide], the IC50 in assay [1] amounted to 405 nM; on PI3K-α it was 5 nM; on PI3K-γ it was 83.5 nM; in assay [2] (72 h), 112 nM; on Human mTOR (FLAG-TOR) it was 0.525 nM.

Consider `CC(C)(C)OC(=O)N1CCC(Oc2nc(-c3ccc(NC(=O)Nc4ccncc4)cc3)nc(N3CCOCC3)n2)CC1` [Example 691, tert-butyl 4-[(4-morpholin-4-yl-6-{4-[(pyridin-4-ylcarbamoyl)amino]phenyl}-1,3,5-triazin-2-yl)oxy]piperidine-1-carboxylate], for which the IC50 amounted to 131 nM in assay [1]; 6 nM on PI3K-α; 199 nM at PI3K-γ; 52 nM in assay [2] (72 h); 1.35 nM at Human mTOR (FLAG-TOR).

With `NS(=O)(=O)N1CCC(Oc2nc(-c3ccc(NC(=O)Nc4ccncc4)cc3)nc(N3CCOCC3)n2)CC1` [Example 692, 4-[(4-morpholin-4-yl-6-{4-[(pyridin-4-ylcarbamoyl)amino]phenyl}-1,3,5-triazin-2-yl)oxy]piperidine-1-sulfonamide], the half-inhibitory concentration (IC50) was 326 nM in assay [1]; 3.2 nM at PI3K-α; 29 nM at PI3K-γ; 97 nM in assay [2] (72 h); 3.75 nM on Human mTOR (FLAG-TOR).

For `CN(C)CCNC(=O)c1ccc(NC(=O)Nc2ccc(-c3nc(N4CCOCC4)nc(N4C5CCC4COC5)n3)cc2)cc1` [Example 694, N-[2-(dimethylamino)ethyl]-4-[({4-[4-morpholin-4-yl-6-(3-oxa-8-azabicyclo[3.2.1]oct-8-yl)-1,3,5-triazin-2-yl]phenyl}carbamoyl)amino]benzamide], the 50% inhibitory concentration (IC50) is 11 nM in assay [1]; 2 nM at PI3K-α; 40 nM at PI3K-γ; less than 3 nM in assay [2] (72 h); 0.245 nM on Human mTOR (FLAG-TOR).

Consider `CN(C)C(=O)c1ccc(NC(=O)Nc2ccc(-c3nc(N4CCOCC4)nc(N4C5CCC4COC5)n3)cc2)cc1` [Example 695, N,N-dimethyl-4-[({4-[4-morpholin-4-yl-6-(3-oxa-8-azabicyclo[3.2.1]oct-8-yl)-1,3,5-triazin-2-yl]phenyl}carbamoyl)amino]benzamide], for which the 50% inhibitory concentration (IC50) in assay [1] was determined as 7 nM; at PI3K-α, 4 nM; at PI3K-γ, 70.5 nM; in assay [2] (72 h), 6 nM; at Human mTOR (FLAG-TOR) it was 0.28 nM.

As to `CNC(=O)c1ccc(NC(=O)Nc2ccc(-c3nc(N4CCOCC4)nc(N4C5CCC4COC5)n3)cc2)cc1` [Example 696, N-methyl-4-[({4-[4-morpholin-4-yl-6-(3-oxa-8-azabicyclo[3.2.1]oct-8-yl)-1,3,5-triazin-2-yl]phenyl}carbamoyl)amino]benzamide], the IC50 in assay [1] worked out at 13 nM; at PI3K-α, 4.5 nM; at PI3K-γ, 73.5 nM; in assay [2] (MDA-MB-361, 72 h) it was 13 nM; at Human mTOR (FLAG-TOR), 0.275 nM.

Take `CN1CCN(C(=O)c2ccc(NC(=O)Nc3ccc(-c4nc(N5CCOCC5)nc(N5C6CCC5COC6)n4)cc3)cc2)CC1` [Example 697, 1-{4-[(4-methylpiperazin-1-yl)carbonyl]phenyl}-3-{4-[4-morpholin-4-yl-6-(3-oxa-8-azabicyclo[3.2.1]oct-8-yl)-1,3,5-triazin-2-yl]phenyl}urea]: the concentration for half-maximal inhibition (IC50) in assay [1] is less than 30 nM; on PI3K-α, 2.7 nM; at PI3K-γ, 42.7 nM; in assay [2] (MDA-MB-361, 72 h) it was less than 30 nM; on Human mTOR (FLAG-TOR), 0.459 nM.
